# Literature values in US20050250746A1, “Premenstrual dysphoric disorder medication” (priority 2004, published 2005).
# Assays:
# [1] = system: Severe Premenstrual Syndrome
# [2] = system: Severe Premenstrual Syndrome or Premenstrual Dysphoric Disorder; details: continuous or intermittent dosing
# Premenstrual Syndrome = details: review of published research
smiles,measurement,setting,value
"Cc1nnc2n1-c1ccc(Cl)cc1C(c1ccccc1)=NC2 [alpazolam, Alprazolam]",reduction in daily symptom report scores,"[1]; double-blind, versus placebo",50%
"CN[C@H]1CC[C@@H](c2ccc(Cl)c(Cl)c2)c2ccccc21 [seratraline, Sertraline]",improvement versus placebo group,[2],improved significantly more than the placebo group
CC(=O)[C@H]1CC[C@H]2[C@@H]3CCC4=CC(=O)CC[C@]4(C)[C@H]3CC[C@]12C [progesterone],difference between progesterone and placebo,Premenstrual Syndrome,no clinically important difference between progesterone and placebo
same,effectiveness of progesterone therapy versus placebo,[1]; oral progesterone,no better than placebo
